Source: patent US9321756B2, “Azole compounds as PIM inhibitors” (priority 2011, dated 2016)
Read-outs that look alike come from different tables or passages of the source.

Experiments:
[1] = molecular target: full length recombinant Pim-1 (Homo sapiens (Human), UniProt P11309); assay: Pim enzyme assay (HTRF, phosphorylation of biotinylated-BAD (S112) peptide), Pim-1; assay type: biochemical; details: Pim-1 enzyme assay; read-out: Pim_1_IC50
[2] = molecular target: full length recombinant Pim-2 (Homo sapiens (Human), UniProt Q9P1W9); assay: Pim enzyme assay (HTRF, phosphorylation of biotinylated-BAD (S112) peptide), Pim-2; assay type: biochemical; details: Pim-2 enzyme assay; read-out: Pim2_IC50
Chain of full length recombinant Pim-2 (Q9P1W9 whole entry): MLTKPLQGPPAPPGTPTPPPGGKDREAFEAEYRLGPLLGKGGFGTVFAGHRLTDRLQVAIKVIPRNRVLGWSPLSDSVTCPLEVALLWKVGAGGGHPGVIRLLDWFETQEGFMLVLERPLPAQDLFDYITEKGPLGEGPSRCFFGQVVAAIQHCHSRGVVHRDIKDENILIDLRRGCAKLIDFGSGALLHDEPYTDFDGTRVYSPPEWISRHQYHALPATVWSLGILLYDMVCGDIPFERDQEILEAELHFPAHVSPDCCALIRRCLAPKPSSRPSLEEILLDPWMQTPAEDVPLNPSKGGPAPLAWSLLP

[3] = molecular target: full length recombinant Pim-3 (Homo sapiens (Human), UniProt Q86V86); assay: Pim enzyme assay (HTRF, phosphorylation of biotinylated-BAD (S112) peptide), Pim-3; assay type: biochemical; details: read-out: Pim3 IC50
Summary of the method: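 Full-length recombinant Pim-3 phosphorylated biotinylated BAD (S112) peptide in 60 mM Hepes pH 7.0, 0.05% BSA, 2 mM DTT for 1 h 30 min at 22 °C. After EDTA stop, HTRF was read with Eu anti-phospho-BAD and streptavidin-APC. IC50 came from 4-parameter logistic fit of percent-of-control values.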

[4] = test system: Pim-1 stably transfected U2OS human osteogenic sarcoma line; assay: Pim cell assay U2OS (phospho-BAD normalized against total BAD), Pim-1 transfected; assay type: cell-based; details: Homo sapiens
Description: (§1) The cell lines used in the assay were generated by the stable transfection of either Pim-1 or Pim-2 into the U2OS human osteogenic sarcoma line. The assay for determination of the Pim activity in the engineered U2OS cell lines measures levels of phospho-BAD normalized against total BAD protein levels. It was conducted as follows:
(§2) The adherent cells were dissociated from the flasks using non-enzymatic cell dissociation solution (Sigma #C5914). […] The cells were then incubated overnight at 37° C., 5% CO2.
(§3) In addition to the 10-point dosing curve of the test compound, DMSO alone was run as the high control.
(§4) This dilution in DMSO was then diluted again into cell growth medium. Aliquots (12 μL) of the compound diluted in growth medium were then transferred to the appropriate wells of the 96-well plates containing cells to a final DMSO concentration of 0.3%. The cell plates were then incubated with compound for 29 min at 37° C., 5% CO2.
(§5) The cell plates containing lysis buffer were then immediately stored at −70° C.
(§6) These prepared lysates were then assayed for phospho and total BAD according to the manufacturer's protocols (Meso Scale Diagnostics, Cat#K15103C-3 & #K15103D-3). The plates were read on the MSD Sector Imager 6000, and results were calculated according to the assay protocols ((% Phosphoprotein=((2×Phospho signal)/(Phospho signal+Total signal))×100)).

[5] = test system: Pim-2 stably transfected U2OS human osteogenic sarcoma line; assay: Pim cell assay U2OS (phospho-BAD normalized against total BAD), Pim-2 transfected; assay type: cell-based; details: Homo sapiens; U2OS cells, Pim-2 transfected; read-out: U2OS Pim2_Cell_IC50
Description: as §1, §2, §3, §4, §5, §6

[6] = U2OS, read-out: U2OS Pim1_Cell_IC50
[7] = U2OS, read-out: U2OS Pim1_Cell_IC50, U2OS cells, Pim-1 transfected

Chain of full length recombinant Pim-1 (P11309 whole entry): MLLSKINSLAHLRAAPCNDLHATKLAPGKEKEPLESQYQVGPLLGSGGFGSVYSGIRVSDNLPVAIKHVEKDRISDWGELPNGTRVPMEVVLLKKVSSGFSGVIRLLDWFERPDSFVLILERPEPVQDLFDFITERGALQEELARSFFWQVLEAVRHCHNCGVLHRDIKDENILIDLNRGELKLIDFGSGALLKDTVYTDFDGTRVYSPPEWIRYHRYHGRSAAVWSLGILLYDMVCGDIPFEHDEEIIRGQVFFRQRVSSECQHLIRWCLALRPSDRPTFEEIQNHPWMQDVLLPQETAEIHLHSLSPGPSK

For Nc1nnc(-c2ccc3[nH]cc(-c4cncc(-c5cccc(Cl)c5)n4)c3c2)o1 [Example 120, 5-(3-(6-(3-chlorophenyl)-2-pyrazinyl)-1H-indol-5-yl)-1,3,4-oxadiazol-2-amine], the IC50 [1] was 0.00941 µM, the IC50 [2] was 0.0229 µM and the IC50 ([3]; Pim-3 enzyme assay) was 0.00423 µM. The IC50 [4, 6] was 0.242 µM and the IC50 [5] was > 31.6 µM.

With Nc1nnc(-c2ccc3[nH]cc(-c4ccc5cn[nH]c5c4)c3c2)s1 [Example 171, 5-(3-(1H-indazol-6-yl)-1H-indol-5-yl)-1,3,4-thiadiazol-2-amine] the IC50 [1] was 0.0366 µM, the IC50 [2] was 0.0583 µM and the IC50 ([3]; Pim-3 enzyme assay) was 0.0139 µM. For the same molecule, the IC50 [4, 7] was 2.66 µM and the IC50 [5] was > 31.6 µM.

Work on Cc1cn(-c2nc(-c3c[nH]c4ccc(-c5nnc(N)s5)cc34)cs2)cn1 [Example 170, 5-(3-(2-(4-methyl-1H-imidazol-1-yl)-1,3-thiazol-4-yl)-1H-indol-5-yl)-1,3,4-thiadiazol-2-amine] yielded an IC50 [1] of 0.0348 µM, an IC50 [2] of 0.1 µM and an IC50 ([3]; Pim-3 enzyme assay) of 0.00947 µM. For the same molecule, the IC50 [4, 6] was 0.876 µM and the IC50 [5] was > 31.6 µM.

In the case of Cc1cn(-c2cccc(-c3c[nH]c4ccc(-c5nnc(N)s5)cc34)n2)cn1 [Example 155, 5-(3-(6-(4-methyl-1H-imidazol-1-yl)-2-pyridinyl)-1H-indol-5-yl)-1,3-4-thiadiazol-2-amine], the IC50 [1] is reported as 0.00442 µM, the IC50 [2] is reported as 0.00225 µM and the IC50 ([3]; Pim-3 enzyme assay) is reported as 0.000425 µM. For the same molecule, the IC50 [4, 7] was 0.259 µM and the IC50 [5] was > 31.6 µM.

Work on Nc1nnc(-c2ccc3[nH]cc(-c4nccc(-c5ccccc5F)n4)c3c2)o1 [Example 123, 5-(3-(4-(2-fluorophenyl)-2-pyrimidinyl)-1H-indol-5-yl)-1,3,4-oxadiazol-2-amine] yielded an IC50 [1] of 0.0106 µM, an IC50 ([3]; Pim-3 enzyme assay) of 0.00497 µM and an IC50 [4, 7] of 0.147 µM. For the same molecule, the IC50 [5] was 1.35 µM.

Molecule CC(C)Oc1cccc(-c2c[nH]c3ccc(-c4nnc(NC5CCCNC5)s4)cc23)n1 (stereo not shown) [Example 32, 5-(3-(6-Isopropoxypyridin-2-yl)-1H-indol-5-yl)-N-(piperidin-3-yl)-1,3,4-thiadiazol-2-amine 2,2,2-trifluoroacetate] has an IC50 [3] of 0.00346 µM, an IC50 [4, 7] of 0.573 µM and an IC50 [5] of 6.85 µM.

CC(C)Oc1cccc(-c2c[nH]c3ccc(-c4nnc(N[C@@H]5CCCNC5)s4)cc23)n1 [Example 35, (R)-5-(3-(6-Isopropoxypyridin-2-yl)-1H-indol-5-yl)-N-(piperidin-3-yl)-1,3,4-thiadiazol-2-amine 2,2,2-trifluoroacetate] gave an IC50 [1] of 0.00923 µM, an IC50 [3] of 0.00184 µM and an IC50 [4, 7] of 1.15 µM. It also gave an IC50 [5] of 10.9 µM.

CNc1nnc(-c2ccc3[nH]cc(-c4csc(-n5cnc(C)c5)n4)c3c2)s1 [Example 233, N-methyl-5-(3-(2-(4-methyl-1H-imidazol-1-yl)-1,3-thiazol-4-yl)-1H-indol-5-yl)-1,3,4-thiadiazol-2-amine] was tested, and the IC50 [1] was 0.1 µM, the IC50 ([3]; Pim-3 enzyme assay) was 0.028 µM and the IC50 [4, 7] was 1.4 µM. For the same molecule, the IC50 [5] was > 31.6 µM.

Work on c1cc(C2CC2)nc(-c2c[nH]c3ccc(-c4nnc(NC5COC5)o4)cc23)n1 [Example 256, 5-(3-(4-cyclopropyl-2-pyrimidinyl)-1H-indol-5-yl)-N-3-oxetanyl-1,3,4-oxadiazol-2-amine] yielded an IC50 [1] of 0.00769 µM, an IC50 ([3]; Pim-3 enzyme assay) of 0.00121 µM and an IC50 [4, 7] of 0.0681 µM. The IC50 [5] was 0.734 µM.

CN1CCCC(Oc2ccnc(-c3c[nH]c4ccc(-c5nnc(N)o5)cc34)n2)C1 (stereo not shown) [Example 112, 5-(3-(4-((1-methyl-3-piperidinyl)oxy)-2-pyrimidinyl)-1H-indol-5-yl)-1,3,4-oxadiazol-2-amine] gave an IC50 [1] of 0.00579 µM, an IC50 [2] of 0.00285 µM and an IC50 [4, 6] of 0.18 µM. It also gave an IC50 [5] of 1.16 µM.

Oc1nnc(-c2ccc3[nH]cc(-c4cccc(N5CCOCC5)n4)c3c2)s1 [Example 29, 5-(3-(6-morpholinopyridin-2-yl)-1H-indol-5-yl)-1,3,4-thiadiazol-2-ol] showed an IC50 [1] of 0.121 µM, an IC50 ([3]; Pim-3 enzyme assay) of 0.0289 µM and an IC50 [4, 7] of 6.86 µM. For the same molecule, the IC50 [5] was > 31.6 µM.

FC(F)(F)CNc1nnc(-c2ccc3[nH]cc(-c4nccc(C5CC5)n4)c3c2)o1 [Example 53, 5-(3-(4-cyclopropylpyrimidin-2-yl)-1H-indol-5-yl)-N-(2,2,2-trifluoroethyl)-1,3,4-oxadiazol-2-amine] showed an IC50 [1] of 0.000407 µM, an IC50 [2] of 0.000638 µM and an IC50 [4, 6] of 0.0345 µM. It also gave an IC50 [5] of 0.475 µM.

With c1cc(C2CC2)nc(-c2c[nH]c3ccc(-c4nnc(NC5CC5)o4)cc23)n1 [Example 257, N-cyclopropyl-5-(3-(4-cyclopropyl-2-pyrimidinyl)-1H-indol-5-yl)-1,3,4-oxadiazol-2-amine] the IC50 [1] was 0.00199 µM, the IC50 [2] was 0.00141 µM and the IC50 [4, 6] was 0.1 µM. The IC50 [5] was 0.943 µM.

CN1CCCC(Nc2ccnc(-c3c[nH]c4ccc(-c5nnc(N)o5)cc34)n2)C1 (stereo not shown) [Example 111, 2-(5-(5-amino-1,3,4-oxadiazol-2-yl)-1H-indol-3-yl)-N-(1-methyl-3-piperidinyl)-4-pyrimidinamine] was tested, and the IC50 [1] was 0.0186 µM, the IC50 [2] was 0.0066 µM and the IC50 [4, 6] was > 31.6 µM. For the same molecule, the IC50 [5] was > 31.6 µM.

Work on Nc1nnc(-c2ccc3[nH]cc(-c4cncc(N5CCC(F)(F)CC5)n4)c3c2)o1 [Example 2, 5-(3-(6-(4,4-difluoropiperidin-1-yl)pyrazin-2-yl)-1H-indol-5-yl)-1,3,4-oxadiazol-2-amine] yielded an IC50 [1] of 0.00194 µM, an IC50 ([3]; Pim-3 enzyme assay) of 0.00108 µM and an IC50 [4, 7] of 0.0294 µM. It also gave an IC50 [5] of 0.419 µM.

In the case of Nc1nnc(-c2ccc3[nH]cc(-c4cccc(N5CCOCC5)n4)c3c2)s1 [Example 24, 5-(3-(6-morpholinopyridin-2-yl)-1H-indol-5-yl)-1,3,4-thiadiazol-2-amine], the IC50 [2] is reported as 0.0587 µM, the IC50 ([3]; Pim-3 enzyme assay) is reported as 0.00559 µM and the IC50 [4, 7] is reported as 0.232 µM. For the same molecule, the IC50 [5] was 7.57 µM.

Work on CC(C)Oc1cccc(-c2c[nH]c3ccc(-c4nnc(N)s4)cc23)n1 [Example 157, 5-(3-(6-(1-methylethoxy)-2-pyridinyl)-1H-indol-5-yl)-1,3,4-thiadiazol-2-amine] yielded an IC50 [1] of 0.00777 µM, an IC50 [2] of 0.0101 µM and an IC50 [4, 6] of 0.106 µM. For the same molecule, the IC50 [5] was 2.22 µM.

Molecule Nc1nnc(-c2ccc3[nH]cc(-c4cccc(OC5CCCC5)n4)c3c2)s1 [Example 163, 5-(3-(6-(cyclopentyloxy)-2-pyridinyl)-1H-indol-5-yl)-1,3,4-thiadiazol-2-amine] has an IC50 [1] of 0.0147 µM, an IC50 ([3]; Pim-3 enzyme assay) of 0.00458 µM and an IC50 ([4]; U2OS cells, Pim-1 transfected, read-out: U2OS Pim1_Cell_IC50) of 0.479 µM. For the same molecule, the IC50 [5] was 6.9 µM.

Molecule CNc1nnc(-c2ccc3[nH]cc(-c4cccc(OC5CCC5)n4)c3c2)s1 [Example 232, 5-(3-(6-(cyclobutyloxy)-2-pyridinyl)-1H-indol-5-yl)-N-methyl-1,3,4-thiadiazol-2-amine] has an IC50 [1] of 0.057 µM, an IC50 [2] of 0.104 µM and an IC50 [4, 6] of 1.72 µM. For the same molecule, the IC50 [5] was > 31.6 µM.

Molecule COC[C@H]1CCCN1c1ccnc(-c2c[nH]c3ccc(-c4nnc(N)o4)cc23)n1 [Example 113, 5-(3-(4-((2R)-2-(methoxymethyl)-1-pyrrolidinyl)-2-pyrimidinyl)-1H-indol-5-yl)-1,3,4-oxadiazol-2-amine] has an IC50 [1] of 0.0137 µM, an IC50 [2] of 0.0257 µM and an IC50 [4, 6] of 0.38 µM. The IC50 [5] was > 10 µM.

Nc1nnc(-c2ccc3[nH]cc(-c4cccc(OC5CCC5)n4)c3c2)s1 [Example 161, 5-(3-(6-(cyclobutyloxy)-2-pyridinyl)-1H-indol-5-yl)-1,3,4-thiadiazol-2-amine] gave an IC50 [1] of 0.0109 µM, an IC50 ([3]; Pim-3 enzyme assay) of 0.00298 µM and an IC50 [4, 7] of 0.205 µM. The IC50 [5] was 3.48 µM.

In the case of c1cc(C2CC2)nc(-c2c[nH]c3ccc(-c4nnc(C5CC5)o4)cc23)n1 [Example 43, 2-cyclopropyl-5-(3-(4-cyclopropylpyrimidin-2-yl)-1H-indol-5-yl)-1,3,4-oxadiazole], the IC50 [1] is reported as 0.00758 µM, the IC50 [2] is reported as 0.00432 µM and the IC50 [4, 6] is reported as 0.247 µM. It also gave an IC50 [5] of 3.39 µM.
